Test [1] addresses EGFR (human) (UniProt P00533). The settings on record: sf-295.
Test [2] addresses EGFR (human) (UniProt P00533). As to conditions: mcf-7.
Test [3] deals with EGFR (human) (UniProt P00533). The settings on record: sf-539.
Test [4] deals with EGFR (human) (UniProt P00533). The settings on record: sk-mel-5.
Test [5] concerns the target EGFR (human) (UniProt P00533). The settings on record: a431.
Test [6] deals with EGFR (human) (UniProt P00533). The settings on record: ovcar-8.
Test [7] has as its target EGFR (human) (UniProt P00533). As to conditions: sn12c.
Test [8] addresses EGFR (human) (UniProt P00533). As to conditions: h522.
In test [9] the target is EGFR (human) (UniProt P00533). The settings on record: mcf7/adr-res.
In test [10] the target is EGFR (human) (UniProt P00533). The settings on record: ovcar-5.
In test [11] the target is EGFR (human) (UniProt P00533). As to conditions: hcc2998.
Test [12] concerns the target EGFR (human) (UniProt P00533). The settings on record: bt-549.
Test [13] deals with EGFR (human) (UniProt P00533). As to conditions: u251.
Test [14] has as its target EGFR (human) (UniProt P00533). The settings on record: hop-92.
For test [15], the target named is EGFR (human) (UniProt P00533). The settings on record: hl60tb.
The target in test [16] is EGFR (human) (UniProt P00533). The settings on record: a549.

Sequence of EGFR (human) (P00533 whole entry, looked up): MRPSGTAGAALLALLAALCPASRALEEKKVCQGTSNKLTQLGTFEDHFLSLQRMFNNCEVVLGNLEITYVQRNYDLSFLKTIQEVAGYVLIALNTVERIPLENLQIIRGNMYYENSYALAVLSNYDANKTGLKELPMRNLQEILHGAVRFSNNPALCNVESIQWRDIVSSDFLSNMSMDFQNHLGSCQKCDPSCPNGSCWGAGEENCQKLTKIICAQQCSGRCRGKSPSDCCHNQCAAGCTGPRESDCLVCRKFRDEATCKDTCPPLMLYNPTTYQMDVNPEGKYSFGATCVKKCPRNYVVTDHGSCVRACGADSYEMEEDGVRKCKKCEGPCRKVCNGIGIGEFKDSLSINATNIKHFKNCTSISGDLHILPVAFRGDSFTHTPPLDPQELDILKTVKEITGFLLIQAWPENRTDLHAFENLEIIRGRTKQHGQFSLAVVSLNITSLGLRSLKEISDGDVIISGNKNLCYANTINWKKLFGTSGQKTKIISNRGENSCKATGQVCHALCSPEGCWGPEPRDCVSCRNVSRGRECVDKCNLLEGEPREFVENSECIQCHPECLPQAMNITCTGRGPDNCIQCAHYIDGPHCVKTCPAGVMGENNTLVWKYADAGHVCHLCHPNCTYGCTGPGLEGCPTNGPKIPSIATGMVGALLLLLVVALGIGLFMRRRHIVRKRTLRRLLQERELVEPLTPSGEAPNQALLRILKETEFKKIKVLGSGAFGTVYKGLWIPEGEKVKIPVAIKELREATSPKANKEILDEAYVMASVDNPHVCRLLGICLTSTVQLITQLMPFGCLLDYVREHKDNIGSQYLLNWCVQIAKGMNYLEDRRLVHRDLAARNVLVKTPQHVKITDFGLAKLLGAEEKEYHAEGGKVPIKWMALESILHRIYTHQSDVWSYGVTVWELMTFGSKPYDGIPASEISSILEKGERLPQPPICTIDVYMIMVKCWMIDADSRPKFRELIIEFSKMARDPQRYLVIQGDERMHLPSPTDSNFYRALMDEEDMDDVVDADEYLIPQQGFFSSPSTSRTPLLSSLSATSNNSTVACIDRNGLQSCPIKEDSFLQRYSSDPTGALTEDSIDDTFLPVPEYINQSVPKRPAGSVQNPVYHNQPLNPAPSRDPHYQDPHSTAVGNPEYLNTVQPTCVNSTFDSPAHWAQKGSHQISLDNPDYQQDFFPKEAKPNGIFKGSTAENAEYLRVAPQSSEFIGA

Broadly, the GI50 is the concentration at which growth is held to half of that of the control. A high value points to lower sensitivity of the cells. By IC50 is commonly meant the concentration at which inhibition is half-maximal. Read a high IC50 as weaker potency. For the molecule `N#CC(C#N)=C(N)/C(C#N)=C/c1ccc([N+](=O)[O-])s1`, the GI50 in the test with EGFR (human) [1] was 17.4 µM; with EGFR (human) [2], 10.5 µM; with EGFR (human) [3], 23.4 µM; with EGFR (human) [4], 7.58 µM; with EGFR (human) [6], 12.6 µM; with EGFR (human) [7] it was 13.5 µM. The GI50 with EGFR (human) [8] turned out to be 11 µM; in the test with EGFR (human) [9], 21.4 µM; with EGFR (human) [10] it was 26.9 µM; with EGFR (human) [11], 15.8 µM; with EGFR (human) [12] it was 12.9 µM; with EGFR (human) [13] it was 18.6 µM. In addition, the IC50 on EGFR (human) [5] came out at 6.07 µM.
With `N#CC(C#N)=Cc1csc([N+](=O)[O-])c1`, the GI50 in the test with EGFR (human) [14] turned out to be 30.9 µM; with EGFR (human) [2], 41.7 µM; with EGFR (human) [3] it was 41.7 µM; in the test with EGFR (human) [15] it was 42.6 µM; in the test with EGFR (human) [4], 15.8 µM; with EGFR (human) [6], 19.5 µM. The GI50 was determined as 34.7 µM with EGFR (human) [7]; 15.1 µM with EGFR (human) [8]; 37.1 µM with EGFR (human) [9]; 59 µM in the test with EGFR (human) [10]; 26.9 µM with EGFR (human) [11]; 27.5 µM in the test with EGFR (human) [12]. Also, in the test with EGFR (human) [16], the GI50 was over 100 µM. Also, at EGFR (human) [5], the IC50 is 28.4 µM.
Turning to `CCOC(=O)/C(C#N)=C/c1ccc([N+](=O)[O-])s1`, the 50% growth inhibitory concentration (GI50) came out at 2.09 µM in the test with EGFR (human) [1]; 11.5 µM with EGFR (human) [14]; 3.09 µM with EGFR (human) [2]; 5.75 µM with EGFR (human) [3]; 0.28 µM with EGFR (human) [15]; 1.2 µM with EGFR (human) [4]. Besides, the GI50 with EGFR (human) [6] stood at 1.99 µM; with EGFR (human) [7] it was 5.75 µM; in the test with EGFR (human) [8], 1.69 µM; with EGFR (human) [9] it was 3.47 µM; in the test with EGFR (human) [10], 1.95 µM; with EGFR (human) [11], 3.47 µM. Besides, the GI50 in the test with EGFR (human) [12] was 0.871 µM; with EGFR (human) [13], 13.5 µM; with EGFR (human) [16], 15.5 µM. Also, the IC50 at EGFR (human) [5] was determined as 4.6 µM.
